Data: patent US10206907B2, “Compounds useful for the treatment of degenerative and inflammatory diseases” (GALAPAGOS NV, priority 2008, dated 2019)
Read-outs that look alike come from different tables or passages of the source.

Key:
[1] = target: Recombinant human TYK2 catalytic domain (Homo sapiens (Human), UniProt P29597); assay: TYK2 inhibition assay; format: biochemical; settings: semi-quantitative score
Experimental: After 90 min at 30° C., reactions were stopped by adding of 25 μL/well of 150 mM phosphoric acid. […] Plates were washed 6 times with 300 μL per well of a 75 mM phosphoric acid solution and the bottom of the plates was sealed. 40 μL/well of Microscint-20 was added, the top of the plates was sealed and readout was performed using the Topcount (Perkin Elmer). Kinase activity was calculated by subtracting counts per minute (cpm) obtained in the presence of a positive control inhibitor (10 μM staurosporine) from cpm obtained in the presence of vehicle. The ability of a test compound to inhibit this activity was determined as: Percentage inhibition=((cpm determined for sample with test compound present−cpm determined for sample with positive control inhibitor) divided by (cpm determined in the presence of vehicle−cpm determined for sample with positive control inhibitor))*100%.
Dose dilution series were prepared for the compounds enabling the testing of dose-response effects in the TYK2 assay and the calculation of the IC50 for each compound.

[2] = Microsomal stability, rat liver microsomes; format: in vitro ADME; settings: percentage of compound remaining after 60 minutes, 3 μM compound
Summary of the method: (§1)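 Compound was incubated with liver microsomes plus an NADP+/glucose-6-phosphate/G6PDH/MgCl2 regenerating system at 37°C for 1 h. Reactions were stopped 1:1 with MeOH or ACN and analysed by LCMS.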

[3] = Caco2 permeability (bi-directional); format: in vitro ADME, human; settings: human, pH 7.4; for Papp A→B at 1 h, 10 µM: Caco-2, apical to basolateral, read-out: Papp (A2B); for efflux ratio at 1 h, 10 µM: Caco-2, ratio of PappB>A/PappA>B
Summary of the method: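 Bidirectional transport across Caco-2 monolayers was run for 1 h at 37 °C with shaking, with 50 μM Lucifer Yellow in the donor to check monolayer integrity (acceptance ≤100 nm/s). Apical and basal compound levels were measured by LC-MS/MS, and efflux ratio was taken as PappB>A/PappA>B.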

[4] = test system: JAK-STAT signalling in HeLa cells; assay: JAK-STAT signalling assay (OSM-triggered pSTAT1(2)-luciferase reporter in HeLa cells); format: cell-based; settings: Homo sapiens; HeLa cells, OSM-triggered pSTAT1(2)-luciferase reporter; read-out: STAT signalling EC50
Summary of the method: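 HeLa cells transiently transfected with pSTAT1(2)-luciferase reporter plus LacZ internal control, incubated overnight at 37 °C, 10% CO2, then OSM-stimulated with compound. Luciferase read by Steadylite luminescence and normalised to β-galactosidase (ONPG); percent inhibition from controls, EC50 from dose-response.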

MMP13 in SW1353 cells = assay: OSM/IL-1β signaling assay (MMP13 levels in SW1353 cells); format: cell-based; settings: Homo sapiens; SW1353 cells, OSM and IL-1β triggered, MMP13 levels 48 hours after triggering; read-out: MMP13 EC50;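 note: secreted MMP13 captured by antibody, activated with APMA and its activity read by fluorescence, inhibition scaled between vehicle-treated triggered wells (0%) and untriggered wells (100%)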
[5] = Microsomal stability, human liver microsomes; format: in vitro ADME; settings: percentage of compound remaining after 60 minutes, 3 μM compound
Summary of the method: as §1

[6] = target: Recombinant human JAK3 catalytic domain (Homo sapiens (Human), UniProt P52333); assay: JAK3 inhibition assay; format: biochemical; settings: semi-quantitative score
Sequence of Recombinant human JAK3 catalytic domain (P52333 781-1124): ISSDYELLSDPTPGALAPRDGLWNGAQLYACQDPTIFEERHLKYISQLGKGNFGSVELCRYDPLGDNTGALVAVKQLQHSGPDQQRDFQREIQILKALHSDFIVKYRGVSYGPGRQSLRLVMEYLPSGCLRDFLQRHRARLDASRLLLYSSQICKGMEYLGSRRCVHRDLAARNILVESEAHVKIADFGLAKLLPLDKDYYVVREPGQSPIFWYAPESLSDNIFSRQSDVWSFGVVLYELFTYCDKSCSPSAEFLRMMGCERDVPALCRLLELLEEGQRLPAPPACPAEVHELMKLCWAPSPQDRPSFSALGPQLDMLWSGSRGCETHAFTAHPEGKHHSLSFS

[7] = target: Recombinant human JAK1 catalytic domain (Homo sapiens (Human), UniProt P23458); assay: JAK1 inhibition assay; format: biochemical
Sequence of Recombinant human JAK1 catalytic domain (P23458 850-1154): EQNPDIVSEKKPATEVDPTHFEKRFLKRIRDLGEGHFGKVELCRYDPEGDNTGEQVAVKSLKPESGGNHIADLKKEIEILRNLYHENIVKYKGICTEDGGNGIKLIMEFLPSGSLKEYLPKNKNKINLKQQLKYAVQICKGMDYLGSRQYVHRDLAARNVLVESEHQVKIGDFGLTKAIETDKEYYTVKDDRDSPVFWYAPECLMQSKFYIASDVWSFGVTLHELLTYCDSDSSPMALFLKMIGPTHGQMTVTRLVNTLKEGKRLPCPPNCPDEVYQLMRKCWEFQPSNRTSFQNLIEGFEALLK
Summary of the method: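 Radiometric assay read by scintillation counting after phosphoric-acid washes. Percent inhibition calculated from cpm relative to vehicle and 10 μM staurosporine control. IC50 derived from compound dose-dilution series.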

[8] = target: Recombinant human JAK2 catalytic domain (Homo sapiens (Human), UniProt O60674); assay: JAK2 inhibition assay; format: biochemical; settings: semi-quantitative score
Sequence of Recombinant human JAK2 catalytic domain (O60674 808-1132): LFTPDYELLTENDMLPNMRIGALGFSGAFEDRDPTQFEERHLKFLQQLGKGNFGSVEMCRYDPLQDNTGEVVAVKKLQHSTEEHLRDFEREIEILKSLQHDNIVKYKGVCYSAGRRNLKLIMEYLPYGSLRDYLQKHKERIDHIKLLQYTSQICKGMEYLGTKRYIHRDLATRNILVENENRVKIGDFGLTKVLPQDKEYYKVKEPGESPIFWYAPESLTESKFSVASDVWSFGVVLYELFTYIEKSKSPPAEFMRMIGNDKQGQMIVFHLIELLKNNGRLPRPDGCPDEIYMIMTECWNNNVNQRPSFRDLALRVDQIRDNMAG
Summary of the method: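 Radiometric kinase reactions ran for 90 min at 30 °C and were stopped with phosphoric acid, then washed and counted by scintillation. Percent inhibition was set relative to vehicle and to 10 μM staurosporine background. IC50 was derived from dose-dilution series.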

Sequence of Recombinant human TYK2 catalytic domain (P29597 871-1187): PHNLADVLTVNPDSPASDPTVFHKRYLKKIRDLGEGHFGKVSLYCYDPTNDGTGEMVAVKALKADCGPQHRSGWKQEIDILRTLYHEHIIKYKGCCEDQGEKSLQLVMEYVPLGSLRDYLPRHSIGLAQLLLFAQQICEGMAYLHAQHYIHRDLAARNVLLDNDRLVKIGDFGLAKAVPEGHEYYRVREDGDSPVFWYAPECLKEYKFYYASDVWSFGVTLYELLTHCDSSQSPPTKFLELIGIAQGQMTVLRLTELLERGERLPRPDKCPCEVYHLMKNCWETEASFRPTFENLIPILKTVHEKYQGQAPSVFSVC

Row | SMILES | IC50 [1] [nM] | Microsomal Stability Rat (%) [2] | Papp A→B at 1 h, 10 µM [3] [×10⁻⁶ cm/s] | efflux ratio at 1 h, 10 µM [3] | EC50 [4] [nM] | EC50 (MMP13 in SW1353 cells) [nM] | Microsomal Stability Human (%) [5] | IC50 [6] [nM] | IC50 ([7]; semi-quantitative score) [nM] | IC50 [8] [nM] | IC50 [7] [nM]
1 | O=C(Nc1nc2cccc(-c3ccc(S(=O)(=O)NC4CC4)cc3)n2n1)C1CC1 [Compound 13, N-(5-(4-(N-cyclopropylsulfamoyl)phenyl)-[1,2,4]triazolo[1,5-a]pyridin-2-yl)cyclopropanecarboxamide] | 501 to 1000 | **** (**** 76-100) | 3.03 | 11.9 | > 1000 | > 1000 | *** (*** 51-75) | > 1000 | < 100 | < 100 | 
2 | O=C(Nc1nc2cccc(-c3ccc(OCc4ccccc4)c(F)c3)n2n1)C1CC1 [Compound 15, N-(5-(4-(benzyloxy)-3-fluorophenyl)-[1,2,4]triazolo[1,5-a]pyridin-2-yl)cyclopropanecarboxamide] | > 1000 | * (* 0-25) |  | 0.91 | 101 to 500 | > 1000 | ** (** 26-50) | 101 to 500 | < 100 | < 100 | 
3 | O=C(Nc1nc2cccc(-c3ccc(C(=O)N4CCCCC4)cc3)n2n1)C1CC1 [Compound 17] | 501 to 1000 | ** (** 26-50) | 11.4 | 2.97 | > 1000 | > 1000 | **** (**** 76-100) | > 1000 | < 100 | 101 to 500 | 
4 | O=C(Nc1nc2cccc(-c3ccc(OC4CCCC4)cc3)n2n1)C1CC1 [Compound 40, N-(5-(4-(cyclopentyloxy)phenyl)-[1,2,4]triazolo[1,5-a]pyridin-2-yl)cyclopropanecarboxamide] | 501 to 1000 | * (* 0-25) | 44.9 | 0.67 | 101 to 500 | 1 to 500 | * (* 0-25) | 501 to 1000 | < 100 | < 100 | 
5 | Cn1ccc(COc2ccc(-c3cccc4nc(NC(=O)C5CC5)nn34)cc2)n1 [Compound 48] | > 1000 | *** (*** 51-75) | 28.8 | 1 | > 1000 | > 1000 | *** (*** 51-75) | > 1000 | < 100 | 101 to 500 | 
6 | Cc1n[nH]c(C)c1CCOc1ccc(-c2cccc3nc(NC(=O)C4CC4)nn23)cc1 [Compound 51] | 501 to 1000 | * (* 0-25) | 10.9 | 3.64 | 101 to 500 | > 1000 | * (* 0-25) | 501 to 1000 | < 100 | < 100 | 
7 | O=C(CCc1ccccc1)Nc1ccc(-c2cccc3nc(NC(=O)C4CC4)nn23)cc1 [Compound 109, N-(5-(4-(3-phenylpropanamido)phenyl)-[1,2,4]triazolo[1,5-a]pyridin-2-yl)cyclopropanecarboxamide] | > 1000 | * (* 0-25) | 19 | 2.5 | 501 to 1000 | 501 to 1000 | * (* 0-25) | 501 to 1000 | < 100 | < 100 | 
8 | O=C(NCCc1ccccc1)c1ccc(-c2cccc3nc(NC(=O)C4CC4)nn23)c(F)c1 [Compound 111, 4-(2-(cyclopropanecarboxamido)-[1,2,4]triazolo[1,5-a]pyridin-5-yl)-3-fluoro-N-phenethylbenzamide] | > 1000 | ** (** 26-50) | 8.23 | 2.9 | 501 to 1000 | > 1000 | ** (** 26-50) | 501 to 1000 | < 100 | 101 to 500 | 
9 | O=C(Nc1nc2cccc(-c3ccc(C(=O)N4CCC(O)(Cc5ccccc5)CC4)cc3)n2n1)C1CC1 [Compound 156, N-(5-(4-(4-benzyl-4-hydroxypiperidine-1-carbonyl)phenyl)-[1,2,4]triazolo[1,5-a]pyridin-2-yl)cyclopropanecarboxamide] | 101 to 500 | ** (** 26-50) | 4.1 | 11.5 | 101 to 500 |  | ** (** 26-50) | 101 to 500 | < 100 | < 100 | 
10 | CC(=O)Nc1nc2cccc(-c3ccc(OCc4ccccc4)cc3)n2n1 [Compound 163, N-(5-(4-(benzyloxy)phenyl)-[1,2,4]triazolo[1,5-a]pyridin-2-yl)acetamide] | > 1000 | ** (** 26-50) |  | 0.85 | > 1000 | > 1000 | *** (*** 51-75) | 101 to 500 |  | < 100 | < 100
11 | O=C(Nc1nc2cccc(-c3ccc(C(=O)N4CCC(F)(F)C4)cc3)n2n1)C1CC1 [Compound 271, Cyclopropanecarboxylic acid (5-[4-(3,3-difluoro-pyrrolidine-1-carbonyl)-phenyl]-[1,2,4]triazolo[1,5-a]pyridin-2-yl}-amide] | < 100 | **** (**** 76-100) | 4 | 13 | 101 to 500 | 501 to 1000 | **** (**** 76-100) | 101 to 500 | < 100 | < 100 | 
12 | O=C(Nc1nc2cccc(-c3ccc(CNc4ccon4)cc3)n2n1)C1CC1 [Compound 302, Cyclopropanecarboxylic acid {5-[4-(isoxazol-3-ylaminomethyl)-phenyl]-[1,2,4]triazolo[1,5-a]pyridin-2-yl}-amide] | < 100 | *** (*** 51-75) | 8.45 | 5.98 | 101 to 500 | > 1000 | *** (*** 51-75) | 101 to 500 | < 100 | < 100 | 
13 | NC(=O)c1ccccc1NCc1ccc(-c2cccc3nc(NC(=O)C4CC4)nn23)cc1 [Compound 306, 2-{4-[2-(Cyclopropanecarbonyl-amino)-[1,2,4]triazolo[1,5-a]pyridin-5-yl]-benzylamino}-benzamide] | < 100 | ** (** 26-50) | 6.55 | 6.55 | 101 to 500 | 501 to 1000 | *** (*** 51-75) | < 100 | < 100 | < 100 | 
14 | O=C(Nc1nc2cccc(-c3ccc(CC(=O)N4CC(F)(F)C4)cc3)n2n1)C1CC1 [Compound 317, Cyclopropanecarboxylic acid (5-{4-[2-(3,3-difluoro-azetidin-1-yl)-2-oxo-ethyl]-phenyl}-[1,2,4]triazolo[1,5-a]pyridin-2-yl)-amide] | 101 to 500 | *** (*** 51-75) | 4.3 | 10.1 | 501 to 1000 | > 1000 | **** (**** 76-100) | > 1000 | < 100 | < 100 | 
